Assay results from US5942508A, “Method for solubilizing pyridonecarboxylic acid solubilizer thereof and aqueous solution containing solubilized pyridonecarboxylic acid” (Senju Pharmaceutical Co., Ltd., priority 1997, dated 1999).
In brackets after ≈: the same amount, converted by molar mass.

Assays:
[1] = Effect of arylcarboxylic acid on solubility of pyridonecarboxylic acid - 2 (Table 2); format: physicochemical; conditions: 0.1% aqueous sodium dihydrogenphosphate, 25° C., one week
Method: Experimental Example 2: Effect of arylcarboxylic acid on solubility of pyridonecarboxylic acid - 2
(§1) To a 0.1% aqueous sodium dihydrogenphosphate solution (100 ml) containing 2-naphthoic acid, 2-naphthylacetic acid or 2-naphthoxyacetic acid was added norfloxacin or enoxacin in excess, and the pH thereof was adjusted to 8-9 with hydrochloric acid or sodium hydroxide. The mixture was shaken for one week at 25° C. and filtered through a 0.45 μm membrane filter, which was followed by the determination of a norfloxacin or enoxacin content by high performance liquid chromatography.

[2] = Effect of arylcarboxylic acid on solubility of pyridonecarboxylic acid - 1 (Table 1); format: physicochemical; conditions: 0.1% aqueous sodium dihydrogenphosphate, 25° C., one week
Method: Experimental Example 1: Effect of arylcarboxylic acid on solubility of pyridonecarboxylic acid - 1
as §1, with “pranoprofen, ibuprofen” for “2-naphthoic acid, 2-naphthylacetic acid”, “bromfenac” for “2-naphthoxyacetic acid”, “7-8” for “8-9”

[3] = Increase of solubility by addition of arylcarboxylic acid (Tables 1 to 3); format: physicochemical; conditions: about, addition of at least one arylcarboxylic acid (pranoprofen, ibuprofen, diclofenac, bromfenac, 2-naphthoic, 2-naphthylacetic, 2-naphthoxyacetic acid)
Method: as §1, with “pranoprofen, ibuprofen” for “2-naphthoic acid, 2-naphthylacetic acid”, “bromfenac” for “2-naphthoxyacetic acid”, “7-8” for “8-9”
as §1
as §1, with “containing pranoprofen, ibuprofen, diclofenac, bromfenac,” for “containing”, “lomefloxacin” for “norfloxacin or enoxacin”

[4] = Effect of arylcarboxylic acid on solubility of pyridonecarboxylic acid - 3 (Table 3); format: physicochemical; conditions: 0.1% aqueous sodium dihydrogenphosphate, 25° C., one week
Method: Experimental Example 3: Effect of arylcarboxylic acid on solubility of pyridonecarboxylic acid - 3
as §1, with “containing pranoprofen, ibuprofen, diclofenac, bromfenac,” for “containing”, “lomefloxacin” for “norfloxacin or enoxacin”

[5] = pH 8, 2-naphthoic acid added, pH 8, 0.1% aqueous sodium dihydrogenphosphate
[6] = pH 8, 2-naphthoxyacetic acid added, pH 8, 0.1% aqueous sodium dihydrogenphosphate
[7] = pH 8, 2-naphthylacetic acid added, pH 8, 0.1% aqueous sodium dihydrogenphosphate
[8] = pH 8, without addition, pH 8, 0.1% aqueous sodium dihydrogenphosphate
[9] = pH 9, 2-naphthoic acid added, pH 9, 0.1% aqueous sodium dihydrogenphosphate
[10] = pH 9, 2-naphthoxyacetic acid added, pH 9, 0.1% aqueous sodium dihydrogenphosphate
[11] = pH 9, 2-naphthylacetic acid added, pH 9, 0.1% aqueous sodium dihydrogenphosphate
[12] = pH 9, without addition, pH 9, 0.1% aqueous sodium dihydrogenphosphate
[13] = pH 7, bromfenac added, pH 7, 0.1% aqueous sodium dihydrogenphosphate
[14] = pH 7, ibuprofen added, pH 7, 0.1% aqueous sodium dihydrogenphosphate
[15] = pH 7, pranoprofen added, pH 7, 0.1% aqueous sodium dihydrogenphosphate
[16] = pH 7, without addition, pH 7, 0.1% aqueous sodium dihydrogenphosphate
[17] = pH 8, bromfenac added, pH 8, 0.1% aqueous sodium dihydrogenphosphate
[18] = pH 8, ibuprofen added, pH 8, 0.1% aqueous sodium dihydrogenphosphate
[19] = pH 8, pranoprofen added, pH 8, 0.1% aqueous sodium dihydrogenphosphate

Row | solubility thermodynamic at 168 h [1, 5] | solubility thermodynamic at 168 h [1, 6] | solubility thermodynamic at 168 h [1, 7] | solubility thermodynamic at 168 h [1, 8] | solubility thermodynamic at 168 h [1, 9] | solubility thermodynamic at 168 h [1, 10] | solubility thermodynamic at 168 h [1, 11] | solubility thermodynamic at 168 h [1, 12] | solubility thermodynamic at 168 h [2, 13] | solubility thermodynamic at 168 h [2, 14] | solubility thermodynamic at 168 h [2, 15] | solubility thermodynamic at 168 h [2, 16] | solubility thermodynamic at 168 h [2, 17] | solubility thermodynamic at 168 h [2, 18] | solubility thermodynamic at 168 h [2, 19] | solubility thermodynamic at 168 h [2, 8] | increase of solubility by addition of arylcarboxylic acid [3] | SMILES | also measured
1 | 540 µg/mL (≈ 1690 µM) | 470 µg/mL (≈ 1470 µM) | 420 µg/mL (≈ 1310 µM) | 250 µg/mL (≈ 780 µM) | 1190 µg/mL (≈ 3710 µM) | 990 µg/mL (≈ 3090 µM) | 830 µg/mL (≈ 2590 µM) | 710 µg/mL (≈ 2220 µM) | 320 µg/mL (≈ 999 µM) | 300 µg/mL (≈ 937 µM) | 780 µg/mL (≈ 2440 µM) | 260 µg/mL (≈ 812 µM) | 350 µg/mL (≈ 1090 µM) | 280 µg/mL (≈ 874 µM) | 630 µg/mL (≈ 1970 µM) | 250 µg/mL (≈ 780 µM) | 1.5-3 times | CCn1cc(C(=O)O)c(=O)c2cc(F)c(N3CCNCC3)nc21 [enoxacin, 1-ethyl-6-fluoro-1,4-dihydro-4-oxo-7-(1-piperazinyl)-1,8-naphthyridine-3-carboxylic acid] | solubility (physchem; 0.1% phosphate buffer, pH 7): 280 µg/mL (≈ 874 µM); solubility (physchem; 1.6% borate buffer, pH 6): 1700 µg/mL (≈ 5310 µM)
2 | – | – | – | – | – | – | – | – | – | – | – | – | – | – | – | – | 1.5-3 times | CCn1cc(C(=O)O)c(=O)c2cc(F)c(N3CCNC(C)C3)c(F)c21 (stereo not shown) [lomefloxacin, 1-ethyl-6,8-difluoro-1,4-dihydro-7-(3-methyl-1-piperazinyl)-4-oxo-3-quinolinecarboxylic acid] | solubility thermodynamic at 168 h [4, 5]: 2300 µg/mL (≈ 6550 µM); solubility thermodynamic at 168 h [4, 6]: 2040 µg/mL (≈ 5810 µM); solubility thermodynamic at 168 h [4, 7]: 1800 µg/mL (≈ 5120 µM); solubility thermodynamic at 168 h ([4]; pH 8, diclofenac added, pH 8, 0.1% aqueous sodium dihydrogenphosphate): 1390 µg/mL (≈ 3960 µM); solubility thermodynamic at 168 h [4, 19]: 2140 µg/mL (≈ 6090 µM); solubility thermodynamic at 168 h [4, 8]: 1180 µg/mL (≈ 3360 µM); solubility thermodynamic at 168 h ([4]; pH 9, bromfenac added, pH 9, 0.1% aqueous sodium dihydrogenphosphate): 4700 µg/mL (≈ 13400 µM); solubility thermodynamic at 168 h ([4]; pH 9, diclofenac added, pH 9, 0.1% aqueous sodium dihydrogenphosphate): 3330 µg/mL (≈ 9480 µM); solubility thermodynamic at 168 h ([4]; pH 9, ibuprofen added, pH 9, 0.1% aqueous sodium dihydrogenphosphate): 3500 µg/mL (≈ 9960 µM); solubility thermodynamic at 168 h [4, 12]: 3000 µg/mL (≈ 8540 µM)
3 | 920 µg/mL (≈ 2880 µM) | 750 µg/mL (≈ 2350 µM) | 580 µg/mL (≈ 1820 µM) | 360 µg/mL (≈ 1130 µM) | 1590 µg/mL (≈ 4980 µM) | 1600 µg/mL (≈ 5010 µM) | 2060 µg/mL (≈ 6450 µM) | 1060 µg/mL (≈ 3320 µM) | 410 µg/mL (≈ 1280 µM) | 430 µg/mL (≈ 1350 µM) | 1810 µg/mL (≈ 5670 µM) | 400 µg/mL (≈ 1250 µM) | 540 µg/mL (≈ 1690 µM) | 420 µg/mL (≈ 1320 µM) | 810 µg/mL (≈ 2540 µM) | 360 µg/mL (≈ 1130 µM) | 1.5-3 times | CCn1cc(C(=O)O)c(=O)c2cc(F)c(N3CCNCC3)cc21 [norfloxacin, 1-ethyl-6-fluoro-1,4-dihydro-4-oxo-7-(1-piperazinyl)-3-quinolinecarboxylic acid] | solubility (physchem; 0.1% phosphate buffer, pH 8): 360 µg/mL (≈ 1130 µM); solubility (physchem; 1.6% borate buffer, pH 7): 390 µg/mL (≈ 1220 µM)
